The record followed here is ChEMBL document CHEMBL4765292, “Flexible diaminodihydrotriazine inhibitors of Plasmodium falciparum dihydrofolate reductase: Binding strengths, modes of binding and their antimalarial activities” (Eur J Med Chem, 2020).

The nature of test [1]: Inhibition of Plasmodium falciparum DHFR expressed in Escherichia coli BL21 using DHF as substrate by spectrophotometric analysis.
Test [2] is described as follows: Inhibition of Plasmodium falciparum DHFR A16V/S108T mutant expressed in Escherichia coli BL21 using DHF as substrate by spectrophotometric analysis.
Test [3] in a line: Inhibition of Plasmodium falciparum DHFR […] mutant expressed in Escherichia coli BL21 using DHF as substrate by spectrophotometric analysis.
Test [4] in a line: Inhibition of Plasmodium falciparum DHFR N51I/C59R/S108N mutant expressed in Escherichia coli BL21 using DHF as substrate by spectrophotometric analysis.
The nature of test [5]: Inhibition of Plasmodium falciparum DHFR C59R/S108N/I164L mutant expressed in Escherichia coli BL21 using DHF as substrate by spectrophotometric analysis.
A short description of test [6]: Inhibition of Plasmodium falciparum DHFR N51I/C59R/S108N/I164L mutant expressed in Escherichia coli BL21 using DHF as substrate by spectrophotometric analysis.
Test [7] has as its system Plasmodium falciparum. Description: Antimalarial activity against Plasmodium falciparum TM4/8.2 infected in human erythrocytes assessed as reduction in [3H]-hypoxanthine incorporation pretreated for 20 hrs followed by [3H]-hypoxanthine addition measured after 20 hrs by radioactivity method. It counts as functional, organism-based.
The subject of test [8] is Plasmodium falciparum. Description: Antimalarial activity against Plasmodium falciparum T9/94 RC17 harboring DHFR A16V/S108T mutant infected in human erythrocytes assessed as reduction in [3H]-hypoxanthine incorporation pretreated for 20 hrs followed by [3H]-hypoxanthine addition measured after 20 hrs by radioactivity method. It counts as functional, organism-based. The following applies: T9/94 RC17, Erythrocyte.

Test [9] concerns Plasmodium falciparum. The test is described as follows: Antimalarial activity against Plasmodium falciparum K1CB1 harboring DHFR […] mutant infected in human erythrocytes assessed as reduction in [3H]-hypoxanthine incorporation pretreated for 20 hrs followed by [3H]-hypoxanthine addition measured after 20 hrs by radioactivity method. It counts as functional, organism-based. The following applies: K1CB1, Erythrocyte.

In test [10] the test system is Plasmodium falciparum. The test is described as follows: Antimalarial activity against Plasmodium falciparum W2 harboring DHFR N51I/C59R/S108N mutant infected in human erythrocytes assessed as reduction in [3H]-hypoxanthine incorporation pretreated for 20 hrs followed by [3H]-hypoxanthine addition measured after 20 hrs by radioactivity method. It counts as functional, organism-based. The following applies: W2, Erythrocyte.

The test system of test [11] is Plasmodium falciparum. The test is described as follows: Antimalarial activity against Plasmodium falciparum CsI-2 harboring DHFR C59R/S108N/I164L mutant infected in human erythrocytes assessed as reduction in [3H]-hypoxanthine incorporation pretreated for 20 hrs followed by [3H]-hypoxanthine addition measured after 20 hrs by radioactivity method. The class given is functional, organism-based. The following applies: CsI-2, Erythrocyte.

The test system of test [12] is Plasmodium falciparum. The test is described as follows: Antimalarial activity against Plasmodium falciparum V1/S harboring DHFR N51I/C59R/S108N/I164L mutant infected in human erythrocytes assessed as reduction in [3H]-hypoxanthine incorporation pretreated for 20 hrs followed by [3H]-hypoxanthine addition measured after 20 hrs by radioactivity method. The class given is functional, organism-based. To be noted: Erythrocyte.

Consider `CC1(C)N=C(N)N=C(N)N1OCCCN(Cc1ccccc1)c1ccc(Cl)cc1`, for which the Ki in test [1] was 0.6 nM; in [2] it was 6.1 nM; in test [3], 0.8 nM; in [4], 1.1 nM; in test [5], 2.3 nM; in [6], 2 nM. Also, the IC50 came to 31 nM with Plasmodium falciparum [7]; 49 nM in the test on Plasmodium falciparum [8]; 400 nM in the test on Plasmodium falciparum [9]; 510 nM in the test with Plasmodium falciparum [10]; 3100 nM with Plasmodium falciparum [11]; 3600 nM with Plasmodium falciparum [12].

`CC1(C)N=C(N)N=C(N)N1OCC(=O)Nc1ccccc1`: the Ki was found to be 3.7 nM in [1]; 131 nM in test [2]; 5.2 nM in [3]; 6.7 nM in test [4]; 16.4 nM in [5]; 17.8 nM in test [6]. In addition, the IC50 in the test with Plasmodium falciparum [7] is 1900 nM; with Plasmodium falciparum [8], 5200 nM; with Plasmodium falciparum [9], 7200 nM; in the test on Plasmodium falciparum [10], 13900 nM; in the test with Plasmodium falciparum [11] it was 17100 nM; with Plasmodium falciparum [12] it was 18100 nM.

Regarding `NC1=NC(c2ccccc2)N(OCCc2ccccc2)C(N)=N1` (stereo not drawn), the Ki was 1.4 nM in test [1]; 8.3 nM in [2]; 3.3 nM in test [3]; 4.1 nM in test [4]; 13 nM in test [5]; 14 nM in test [6]. Moreover, the IC50 amounted to 80 nM in the test on Plasmodium falciparum [7]; 3.1 nM in the test with Plasmodium falciparum [8]; 16200 nM in the test with Plasmodium falciparum [9]; 16800 nM with Plasmodium falciparum [10]; 20500 nM in the test on Plasmodium falciparum [11]; 24700 nM in the test on Plasmodium falciparum [12].

`CC1(C)N=C(N)N=C(N)N1OCCCNC(=O)c1ccccc1`: the Ki in test [1] stood at 1.4 nM; in [2], 14.7 nM; in test [3] it was 2.6 nM; in test [4], 2.6 nM; in test [5], 6.9 nM; in test [6] it was 13.8 nM. In addition, the IC50 is 29 nM in the test on Plasmodium falciparum [7]; 40 nM in the test with Plasmodium falciparum [8]; 230 nM in the test on Plasmodium falciparum [9]; 230 nM in the test with Plasmodium falciparum [10]; 2400 nM with Plasmodium falciparum [11]; 5400 nM with Plasmodium falciparum [12].

`CC1(C)N=C(N)N=C(N)N1OCCCNS(=O)(=O)c1ccccc1`: the Ki in test [1] was determined as 0.8 nM; in [2], 61 nM; in test [3] it was 4.3 nM; in test [4] it was 10 nM; in test [5], 51 nM; in [6], 184 nM. Also, the IC50 is 51 nM in the test on Plasmodium falciparum [7]; 2200 nM with Plasmodium falciparum [8]; 5400 nM with Plasmodium falciparum [9]; 15200 nM with Plasmodium falciparum [10]; 73400 nM in the test with Plasmodium falciparum [11]; 61900 nM with Plasmodium falciparum [12].

Consider `Cc1ccc(S(=O)(=O)NCCON2C(N)=NC(N)=NC2(C)C)cc1`, for which the Ki is 1.8 nM in test [1]; 308 nM in [2]; 6.4 nM in test [3]; 10.2 nM in [4]; 139 nM in test [5]; 229 nM in test [6]. Moreover, the IC50 in the test with Plasmodium falciparum [7] is 2000 nM; with Plasmodium falciparum [8], 18700 nM; in the test on Plasmodium falciparum [9], 9700 nM; in the test with Plasmodium falciparum [10] it was 21500 nM; in the test on Plasmodium falciparum [11] it was 63300 nM; in the test on Plasmodium falciparum [12] it was 62200 nM.

Take `CC1(C)N=C(N)N=C(N)N1OCCCN(Cc1ccccc1)c1ccc(Cl)c(Cl)c1`: the inhibition constant Ki amounted to 1 nM in test [1]; 5.3 nM in test [2]; 1.6 nM in [3]; 1.2 nM in test [4]; 2.7 nM in [5]; 1.7 nM in test [6]. For the same compound, the IC50 is 150 nM with Plasmodium falciparum [7]; 290 nM in the test on Plasmodium falciparum [8]; 2300 nM in the test with Plasmodium falciparum [9]; 2100 nM in the test on Plasmodium falciparum [10]; 5000 nM in the test with Plasmodium falciparum [11]; 5300 nM in the test on Plasmodium falciparum [12].

For the compound `CC1(C)N=C(N)N=C(N)N1OCC(=O)NCc1ccc(Cl)cc1`, the inhibition constant (Ki) in test [1] was found to be 1.7 nM; in test [2], 72.2 nM; in test [3], 3.6 nM; in test [4] it was 4.3 nM; in test [5] it was 13 nM; in [6], 16.3 nM. In addition, the IC50 turned out to be 2400 nM in the test on Plasmodium falciparum [7]; 430 nM in the test on Plasmodium falciparum [8]; 530 nM in the test with Plasmodium falciparum [9]; 2500 nM in the test on Plasmodium falciparum [10]; 3600 nM in the test with Plasmodium falciparum [11]; 11000 nM in the test with Plasmodium falciparum [12].

In the case of `CC1(C)N=C(N)N=C(N)N1OCCCNc1ccccc1`, the Ki was determined as 0.6 nM in test [1]; 5.7 nM in [2]; 0.8 nM in test [3]; 1.1 nM in test [4]; 1.8 nM in test [5]; 4.8 nM in test [6]. The IC50 in the test with Plasmodium falciparum [7] was 1850 nM; in the test on Plasmodium falciparum [9], 240 nM; in the test with Plasmodium falciparum [10], 300 nM; with Plasmodium falciparum [11], 3200 nM; with Plasmodium falciparum [12], 2300 nM.

On to `Cc1ccc(S(=O)(=O)NCCCON2C(N)=NC(N)=NC2(C)C)cc1`, for which the inhibition constant Ki is 1 nM in [1]; 186 nM in [2]; 4 nM in test [3]; 7.5 nM in [4]; 73 nM in test [5]; 143 nM in [6]. For the same compound, the half-inhibitory concentration (IC50) in the test on Plasmodium falciparum [7] turned out to be 440 nM; in the test on Plasmodium falciparum [8] it was 3900 nM; in the test with Plasmodium falciparum [9], 9600 nM; with Plasmodium falciparum [10], 15100 nM; with Plasmodium falciparum [11], 31200 nM; in the test on Plasmodium falciparum [12] it was 23500 nM.

Consider `CC1(C)N=C(N)N=C(N)N1c1ccc(Cl)cc1` [CYCLOGUANIL], for which the Ki in test [1] turned out to be 1.5 nM; in test [2] it was 1310 nM; in test [3], 43.2 nM; in test [4] it was 31.4 nM; in [5] it was 285 nM; in [6], 421 nM. The IC50 in the test on Plasmodium falciparum [7] is 37 nM; in the test with Plasmodium falciparum [8], 3700 nM; with Plasmodium falciparum [9], 2400 nM; in the test on Plasmodium falciparum [10], 6080 nM; with Plasmodium falciparum [11], 37900 nM; in the test on Plasmodium falciparum [12] it was above 100000 nM.

As to `CC1(C)N=C(N)N=C(N)N1OCCCN(Cc1ccccc1)Cc1ccccc1`, the Ki in test [1] was found to be 1.5 nM; in test [2], 6.3 nM; in test [3], 2.9 nM; in test [4], 3.1 nM; in [5], 3.1 nM; in [6], 5.4 nM. The IC50 in the test on Plasmodium falciparum [7] turned out to be 22 nM; in the test on Plasmodium falciparum [8], 25 nM; with Plasmodium falciparum [9], 350 nM; in the test on Plasmodium falciparum [10] it was 500 nM; in the test with Plasmodium falciparum [11] it was 500 nM; in the test on Plasmodium falciparum [12], 5400 nM.

Turning to `CC1(C)N=C(N)N=C(N)N1OCCCOCc1ccccc1`, the Ki in test [1] is 0.6 nM; in test [2], 5.3 nM; in test [3], 1.3 nM; in test [4], 1.2 nM; in test [5], 4.2 nM; in test [6] it was 4.1 nM. In addition, the half-inhibitory concentration (IC50) in the test with Plasmodium falciparum [7] worked out at 14 nM; in the test on Plasmodium falciparum [9], 48 nM; in the test on Plasmodium falciparum [10] it was 51 nM; with Plasmodium falciparum [11], 400 nM; in the test with Plasmodium falciparum [12], 1210 nM.

With `CCN(CCCON1C(N)=NC(N)=NC1(C)C)c1ccc(Cl)c(Cl)c1`, the Ki amounted to 1.4 nM in test [1]; 2.8 nM in test [2]; 2.1 nM in test [3]; 2 nM in [4]; 2.2 nM in test [5]; 3.9 nM in test [6]. The IC50 in the test with Plasmodium falciparum [7] was 26 nM; with Plasmodium falciparum [9] it was 35 nM; in the test with Plasmodium falciparum [10], 71 nM; with Plasmodium falciparum [11], 46 nM; with Plasmodium falciparum [12], 2900 nM.

With `CC1(C)N=C(N)N=C(N)N1OCCCCOCc1ccccc1`, the Ki stood at 1 nM in [1]; 10.5 nM in [2]; 2.5 nM in test [3]; 2.9 nM in test [4]; 12.2 nM in [5]; 18.2 nM in test [6]. Moreover, the IC50 was found to be 400 nM with Plasmodium falciparum [7]; 2400 nM in the test with Plasmodium falciparum [9]; 3200 nM in the test on Plasmodium falciparum [10]; 4800 nM in the test with Plasmodium falciparum [11]; 20800 nM in the test with Plasmodium falciparum [12].

On to `CC1(C)N=C(N)N=C(N)N1OCCOc1cc(Cl)c(Cl)cc1Cl`, for which the Ki was determined as 1 nM in [1]; 6.1 nM in [2]; 1.2 nM in test [3]; 2.2 nM in test [4]; 11 nM in [5]; 16 nM in test [6]. The IC50 in the test with Plasmodium falciparum [7] was determined as 750 nM; in the test with Plasmodium falciparum [9], 490 nM; with Plasmodium falciparum [10], 3010 nM; with Plasmodium falciparum [11] it was 3300 nM; in the test on Plasmodium falciparum [12] it was 11500 nM.

As for `CC1(C)N=C(N)N=C(N)N1OCc1ccccc1`, the Ki in test [1] was 0.4 nM; in [2] it was 46 nM; in [3], 2.8 nM; in test [4] it was 5.9 nM; in [5], 30 nM; in test [6] it was 45 nM. Moreover, the IC50 was 2670 nM in the test with Plasmodium falciparum [7]; 1800 nM with Plasmodium falciparum [9]; 4500 nM in the test with Plasmodium falciparum [10]; 47600 nM with Plasmodium falciparum [11]; above 100000 nM in the test on Plasmodium falciparum [12].

In general, Ki refers to a measure of affinity in units of concentration, obtained from inhibition or displacement. Broadly, the IC50 is the concentration that inhibits the measured activity by half.
